Experiments:
FIH = FIH (Homo sapiens, UniProt Q9NWT6); assay: O-phenylenediamine (OPD) 2OG derivatization turnover assay (remaining 2OG in FIH hydroxylation system); type: biochemical; parameters: Concentration of remaining 2OG: unit: µM
Experimental: To explore whether the covalent inhibitor can effectively and sustainably prevent the hydroxylation process catalyzed by FIH, the inhibitory activities against FIH were evaluated using the fluorescent O-phenylenediamine (OPD) 2OG derivatization turnover assay (Figure S9).
Figure S9. Schematic of the O-phenylenediamine (OPD) fluorescent derivative assay6. The assay monitors depletion of 2OG.
(1 picture or pasted object on this page, not shown here) […]
pET28a vectors encoding for full-length FIH with an N-terminal His6 tag or for FIH (K106A) with an N-terminal His6 tag were purchased from Nanjing Zoonbio Biotechnology. Both the FIHWT and FIHK106A protein were expressed from the respective plasmid in Escherichia coli BL21 at 20 °C for 16 h. E. coli cells were lysed and the lysate were clarified by centrifugation. His6-tagged FIHWT or FIHK106A was purified on a HisTrap affinity column (GE Healthcare) by elution with an imidazole gradient. The final purified proteins were stored in PBS buffer. […]
Ki = I50 / [1 + ([L]50 + [P]0)/Kd] […]
3.2 O-Phenylenediamine (OPD) fluorescent derivative assay
Assays were carried out by mixing 1 mM DTT, 0.6 mg/mL of catalase, 200 μM 2-OG, 50 mM Hepes, 200 μM HIF-1α (788-807), and inhibitors at pH 7.0 to a final volume of 44 μL and incubated at 37 °C for 5 min. At the same time, FIH enzyme and iron (prepared as 200 mM stock in 20 mM HCl and diluted with water) were mixed at room temperature for 3 min. […] The reaction was stopped by the addition of 100 μL of 0.5 M HCl. After adding 50 μL of 10 mg/mL OPD in 0.5 M HCl and heating at 95 °C for 10 min, the derivatization was achieved. Then, 50 μL of the mixture centrifugated for 5 min was made basic by adding 30 μL of 1.25 M NaOH, and then fluorescence was detected by SPARK Multi-Mode Microplate Reader (Tecan). […]
Crystals were cryo -protected using mother liquor supplemented with 25%v/v glycerol before manual loop cryo -cooling in liquid N2.
Data for ligand -bound protein complexes were from single crystals at 100 K using Diamond Light Source (UK) beamlines. The FIH crystal structures were determined by molecular replacement (MR) using the AutoMR (PHASER) subroutine in PHENIX (version 1.18.2) based on the PDB ID: 1H2K crystal structure .

[1] = tested on: EGLN3 mRNA level in Hep3B cells; assay: qRT-PCR of FIH-dependent HIF target gene EGLN3 in Hep3B cells; type: cell-based
Experimental: 5 […] sustainably engages with FIH and regulates the expression of FIH-dependent HIF target gene EGLN3 in Hep3B cells. (A) The CETSA assay was carried out with Hep3B cells grown in the presence of NBA-ZG-2291 (50 μM) for 12–48 h after 30 min of light activation (365 nm, 16 W). The intensity of the bands for grayscale analysis was referenced to the starting temperature (37 °C). α-Actinin was the sample loading control. n = 2; mean ± SD. […] (E) Correlation heatmap of the NBA-ZG-2291-treated group and the siFIH group by RNA-sequencing analysis. […] The relative fold change with respect to DMSO treated sample is shown (with normalization to HPRT gene levels). Mean ± SEM; n = 3. (G) TG level of NBA-ZG-2291-treated 3T3-L1-derived adipocytes. Mean ± SEM; n = 3. (H) Representative Oil Red O-stained images of the control, ZG-2291-treated, and NBA-ZG-2291-treated 3T3-L1-derived adipocytes. Scale Bar, 30 μm. P values were analyzed by two-way ANOVA comparing with the vehicle/control group (*, P < 0.05; **, P < 0.01; ***, P < 0.001, ****, P < 0.0001). See Methods (Quantitative PCR Analysis of Gene Expression) for assay details. TEXT PRINTED IN THE PICTURE: (A) no label printed: FIH: ΔTm (°C): 8.87 (Incubation time: 12 h); FIH: ΔTm (°C): 9.28 (Incubation time: 24 h); FIH: ΔTm (°C): 8.86 (Incubation time: 48 h); α-actinin: ΔTm (°C): 0.30 (Incubation time: 12 h); α-actinin: ΔTm (°C): -0.03 (Incubation time: 24 h); α-actinin: ΔTm (°C): -0.45 (Incubation time: 48 h) DOUBTS OF THE COPYIST ABOUT THIS PICTURE: Panel A: the picture prints no substance label with the ΔTm tables, so the label is left empty
The Egl-9 family hypoxia-inducible factor 3 gene (EGLN3, PHD3) is a HIF target gene, expression of which is negatively regulated by FIH catalysis, , potentially in a context-dependent manner. We therefore investigated the effect of the light-induced covalent inhibitor NBA-ZG-2291 on EGLN3 expression levels in Hep3B cells using ZG-2291 as a positive inhibition control. […] At a concentration of 10 μM, NBA-ZG-2291 increased EGLN3 expression by ∼2.5-fold with irradiation.
We also compared the time-dependent regulation of NBA-ZG-2291 on the HIF pathway with that of ZG-2291. […] This may result from the limited action time of the reversible inhibitor, perhaps due to its metabolism. The overall results provide strong evidence that the light-induced, lysine-targeting irreversible covalent inhibitor NBA-ZG-2291 can effectively and sustainably engage FIH, leading to the upregulation of FIH-dependent HIF target gene expression.

FIH, sequence (Q9NWT6 whole entry): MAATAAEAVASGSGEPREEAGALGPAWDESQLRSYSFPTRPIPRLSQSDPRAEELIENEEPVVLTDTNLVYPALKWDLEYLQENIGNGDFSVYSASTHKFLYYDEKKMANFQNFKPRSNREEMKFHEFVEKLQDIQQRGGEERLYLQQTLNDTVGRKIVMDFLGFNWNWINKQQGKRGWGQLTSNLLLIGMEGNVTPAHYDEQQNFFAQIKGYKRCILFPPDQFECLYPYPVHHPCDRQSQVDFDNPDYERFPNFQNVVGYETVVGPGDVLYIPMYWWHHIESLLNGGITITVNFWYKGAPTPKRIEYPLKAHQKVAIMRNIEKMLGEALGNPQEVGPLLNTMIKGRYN

In the case of `O=C(O)CNC(=O)c1ncc(-c2cc(-c3cccc(Cl)c3)no2)cc1O` [ZG-2291, reference compound], the “Concentration of remaining 2OG” value (FIH; inhibitor 0.14 μM, incubation 0 min, 200 μM 2-OG at start) is reported as 200.0, the “Concentration of remaining 2OG” value (FIH; inhibitor 0.14 μM, incubation 15 min) is reported as 182.9 and the “Concentration of remaining 2OG” value (FIH; inhibitor 0.14 μM, incubation 30 min) is reported as 173.3. The “Concentration of remaining 2OG” value (FIH; inhibitor 0.14 μM, incubation 1 h) was 163.0, the “Concentration of remaining 2OG” value (FIH; inhibitor 0.14 μM, incubation 4 h) was 140.5 and the “Concentration of remaining 2OG” value (FIH; inhibitor 0.41 μM, incubation 0 min, 200 μM 2-OG at start) was 200.0. The “Concentration of remaining 2OG” value (FIH; inhibitor 0.41 μM, incubation 15 min) was 184.2, the “Concentration of remaining 2OG” value (FIH; inhibitor 0.41 μM, incubation 30 min) was 176.4 and the “Concentration of remaining 2OG” value (FIH; inhibitor 0.41 μM, incubation 1 h) was 162.3. The “Concentration of remaining 2OG” value (FIH; inhibitor 0.41 μM, incubation 4 h) was 153.7, the “Concentration of remaining 2OG” value (FIH; inhibitor 1.23 μM, incubation 0 min, 200 μM 2-OG at start) was 200.0 and the “Concentration of remaining 2OG” value (FIH; inhibitor 1.23 μM, incubation 15 min) was 190.8. The “Concentration of remaining 2OG” value (FIH; inhibitor 1.23 μM, incubation 30 min) was 184.4, the “Concentration of remaining 2OG” value (FIH; inhibitor 1.23 μM, incubation 1 h) was 172.8 and the “Concentration of remaining 2OG” value (FIH; inhibitor 1.23 μM, incubation 4 h) was 159.4. For the same compound, the “Concentration of remaining 2OG” value (FIH; inhibitor 3.70 μM, incubation 0 min, 200 μM 2-OG at start) was 200.0, the “Concentration of remaining 2OG” value (FIH; inhibitor 3.70 μM, incubation 15 min) was 192.8 and the “Concentration of remaining 2OG” value (FIH; inhibitor 3.70 μM, incubation 30 min) was 190.8. For the same compound, the “Concentration of remaining 2OG” value (FIH; inhibitor 3.70 μM, incubation 1 h) was 181.0, the “Concentration of remaining 2OG” value (FIH; inhibitor 3.70 μM, incubation 4 h) was 167.9 and the “Concentration of remaining 2OG” value (FIH; inhibitor 11.1 μM, incubation 0 min, 200 μM 2-OG at start) was 200.0. For the same compound, the “Concentration of remaining 2OG” value (FIH; inhibitor 11.1 μM, incubation 15 min) was 195.1, the “Concentration of remaining 2OG” value (FIH; inhibitor 11.1 μM, incubation 30 min) was 194.6 and the “Concentration of remaining 2OG” value (FIH; inhibitor 11.1 μM, incubation 1 h) was 184.1. The “Concentration of remaining 2OG” value (FIH; inhibitor 11.1 μM, incubation 4 h) was 175.9, the “Concentration of remaining 2OG” value (FIH; inhibitor 33.3 μM, incubation 0 min, 200 μM 2-OG at start) was 200.0 and the “Concentration of remaining 2OG” value (FIH; inhibitor 33.3 μM, incubation 15 min) was 195.6. For the same compound, the “Concentration of remaining 2OG” value (FIH; inhibitor 33.3 μM, incubation 30 min) was 195.3, the “Concentration of remaining 2OG” value (FIH; inhibitor 33.3 μM, incubation 1 h) was 189.4 and the “Concentration of remaining 2OG” value (FIH; inhibitor 33.3 μM, incubation 4 h) was 181.4. For the same compound, the “Concentration of remaining 2OG” value (FIH; inhibitor 100 μM, incubation 0 min, 200 μM 2-OG at start) was 200.0, the “Concentration of remaining 2OG” value (FIH; inhibitor 100 μM, incubation 15 min) was 199.4 and the “Concentration of remaining 2OG” value (FIH; inhibitor 100 μM, incubation 30 min) was 197.3. For the same compound, the “Concentration of remaining 2OG” value (FIH; inhibitor 100 μM, incubation 1 h) was 193.2, the “Concentration of remaining 2OG” value (FIH; inhibitor 100 μM, incubation 4 h) was 186.6 and the “Concentration of remaining 2OG” value (FIH; inhibitor 300 μM, incubation 0 min, 200 μM 2-OG at start) was 200.0. For the same compound, the “Concentration of remaining 2OG” value (FIH; inhibitor 300 μM, incubation 15 min) was 200.0, the “Concentration of remaining 2OG” value (FIH; inhibitor 300 μM, incubation 30 min) was 199.1 and the “Concentration of remaining 2OG” value (FIH; inhibitor 300 μM, incubation 1 h) was 196.6. For the same compound, the “Concentration of remaining 2OG” value (FIH; inhibitor 300 μM, incubation 4 h) was 193.3, the “Effect of irradiation on EGLN3 expression” value [1] was “not affected by irradiation” and the “Upregulation of EGLN3 mRNA level” value ([1]; 20 μM, absence of irradiation) was about 2.2 fold. For the same compound, the “EGLN3 mRNA levels versus DMSO” value ([1]; after 16 h treatment) was “no significant difference compared to the negative control”.
